Results reported in patent US6762294B2, “Polynucleotides encoding polymorphic human GABAA receptor α-6 subunit” (The United States of America as represented by the …, priority 1999, dated 2004).
Read-outs that look alike come from different tables or passages of the source.

How the values were obtained:
[1] = tested on: sons of alcoholics and controls (men)
Excerpt: As part of a larger study, 41 men, were selected from among the first 113 completed 15-year follow-ups in a prospective study. […] Seventeen subjects whose low level of response to ethanol (LR) were in the lower third were compared on five polymorphisms of four genes with 24 men whose reactions to alcohol had been above the median.
For this pilot study, blood samples were taken from the first 41 appropriate consecutive men among the first 113 who completed 15-year follow-ups in an ongoing study. In order to identify subjects who were clearly low on LR, the men were selected to represent the two poles of LR. […] The alcohol challenges, evaluated changes from baseline for subjective feeling of intoxication, standing steadiness, and hormones after drinking 0.75 ml/kg of ethanol. (Schuckit and Gold, Arch Gen Psychiatry 45:211-216 (1986). The overall LR was evaluated as the change from baseline (pre-alcohol) to the time of peak blood alcohol concentration (BAC) (60 minute values) following alcohol consumption.

[2] = tested on: children of alcoholics (COAs); experiment: Smooth pursuit eye movement task after intravenous diazepam; type: in vivo, human; settings: COAs having the Pro385Ser allele relative to COAs having the Pro385 genotype
Experimental: Initially, the saccadic eye movement velocity and smooth pursuit eye movement gain was measured in the 56 COAs tested. Two baseline measurements for each variable were taken and averaged. The differences from this baseline were then evaluated at set time points after each of four diazepam doses. The data points were used to determine, by a trapezoidal technique, the integrated area under the resulting curve. The area under the curve for the dependent variable was then divided by the area under the curve for plasma diazepam levels to correct for individual variability in diazepam levels. The ratios of the areas under the curves for COAs with the Ser385 homozygous genotype and the Pro/Ser heterozygous genotype were then compared by t-test. […] For the G1031C genotype, a one-way ANOVA was used for assessing association.
COAs were tested on two days about one week apart. Intravenous catheters were inserted into antecubital veins in each of the subjects arms. One intravenous line was used for drawing blood while the other was used for administration of either diazepam or placebo. […]
On each testing day, responses were measured at 12 separate time points: twice at baseline, once after each of the four doses, and at each of six 30 minute intervals after the last dose for a period spanning three hours. Eye movements were evaluated at each time point. […]

Structure (SMILES): CCO [ethanol]
- mean (±SD) LR ([1]; 0.75 ml/kg ethanol, 5-HT2A His452Tyr genotype His-His): −.44
- mean (±SD) LR ([1]; 0.75 ml/kg ethanol, 5-HT2A His452Tyr genotype His-Tyr): −.20
- mean (±SD) LR ([1]; 0.75 ml/kg ethanol, 5-HT2A T102C genotype CC): −.46
- mean (±SD) LR ([1]; 0.75 ml/kg ethanol, 5-HT2A T102C genotype TC): −.31
- mean (±SD) LR ([1]; 0.75 ml/kg ethanol, 5-HT2A T102C genotype TT): −.71
- mean (±SD) LR ([1]; 0.75 ml/kg ethanol, 5-HT2C Cys23Ser genotype Cys): −.39
- mean (±SD) LR ([1]; 0.75 ml/kg ethanol, 5-HT2C Cys23Ser genotype Ser): −.73
- mean (±SD) LR ([1]; 0.75 ml/kg ethanol, 5-HT Transporter genotype SL): −.30
- mean (±SD) LR ([1]; 0.75 ml/kg ethanol, 5-HT Transporter genotype SS): −.00
- mean (±SD) LR ([1]; 0.75 ml/kg ethanol, GABAA α6 genotype Pro/Pro): −.27
- mean (±SD) LR ([1]; 0.75 ml/kg ethanol, GABAA α6 genotype Pro/Ser): −1.01
- mean LR ([1]; 0.75 ml/kg ethanol, combined SL and SS 5-HTT genotype groups): 0.16±0.75
- proportion of subjects whose LR fell into the lowest third ([1]; 5-HTT genotype LL): 71.4%
- proportion of subjects whose LR fell into the lowest third ([1]; 5-HTT genotype SL): 31.6%
- proportion of subjects whose LR fell into the lowest third ([1]; 5-HTT genotype SS): 12.5%
- LR at age 20 ([1]; LL/PP genotypes): −0.74±1.13
- proportion in the lowest third in response to alcohol ([1]; Pro385 homozygotes): 35.3%
- LR at age 20 ([1]; SL/PP genotypes): −0.13±0.88
- LR at age 20 ([1]; SL/PS genotypes): 0.59±1.11
- LR at age 20 ([1]; SS/PP genotypes): 0.03±0.45
- LR at age 20 ([1]; combination of LL 5-HTT and Ser385 GABAA α6 genotypes): −1.29±0.53
- Sensitivity to ethanol ([1]; individuals with the Pro385Ser polymorphism compared with the wild-type polymorphism): reduced sensitivity
- proportion in the lowest third in response to alcohol ([1]; those with Ser385 (Pro/Ser)): 71.4%

Structure (SMILES): CN1C(=O)CN=C(c2ccccc2)c2cc(Cl)ccc21 [diazepam]
- Sensitivity to diazepam (average smooth pursuit eye movement gain) [2]: reduced sensitivity
